This note sets out measurements from patent US12291519B2, “2-hydroxycycloalkane-1-carbamoyl” (Idorsia Pharmaceuticals Ltd, priority 2019, dated 2025).

The target in one assay is human Gal-3 (hGal-3) (Homo sapiens (Human), UniProt P17931). The assay can be described thus: Competitive binding assay: biotinylated hGal-3 binding to microplate-adsorbed asialofetuin (ASF). As to conditions: Activity on hGal-3; binding of biotinylated hGal-3 to ASF-coated plates; mean values. In outline: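 Serially diluted compounds competed with biotinylated human Gal-3 for binding to plate-adsorbed asialofetuin over 3 h at 4 °C. Bound Gal-3 was detected with streptavidin-peroxidase (80 ng/mL, 1 h, 4 °C) and ABTS substrate. IC50 values are means of several measurements.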

The target in the next assay is human Gal-1 (hGal-1). Kind of assay: Competitive binding assay: biotinylated hGal-1 binding to microplate-adsorbed asialofetuin (ASF). As to conditions: Activity on hGal-1; binding of biotinylated hGal-1 to ASF-coated plates; mean values. The gist of the method:
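Inhibition measured as loss of hGal-1 (biotinylated, 300–1000 ng/mL, wild type or Cys→Ser mutant) binding to adsorbed asialofetuin over 3 h at 4 °C. Bound lectin detected with streptavidin-HRP and ABTS (410 nm, 30–45 min); IC50 values averaged across repeat measurements.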

Sequence of human Gal-1 (hGal-1) (P09382 2-135 limits assumed): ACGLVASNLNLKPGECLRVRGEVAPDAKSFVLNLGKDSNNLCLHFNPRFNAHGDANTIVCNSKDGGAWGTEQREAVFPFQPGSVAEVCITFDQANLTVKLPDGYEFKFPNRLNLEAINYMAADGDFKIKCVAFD
Sequence of human Gal-3 (hGal-3) (P17931 whole entry): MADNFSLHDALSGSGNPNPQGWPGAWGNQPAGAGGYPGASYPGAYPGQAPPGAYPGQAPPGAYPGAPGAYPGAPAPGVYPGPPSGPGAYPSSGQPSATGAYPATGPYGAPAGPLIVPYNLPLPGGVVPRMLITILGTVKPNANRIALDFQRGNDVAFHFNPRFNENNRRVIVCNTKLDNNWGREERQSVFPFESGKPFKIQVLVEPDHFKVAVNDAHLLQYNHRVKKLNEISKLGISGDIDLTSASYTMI

As to `CO[C@@H]1[C@@H](n2cc(-c3cccc(F)c3)nn2)[C@@H](O)[C@@H](CO)O[C@H]1C(=O)N(c1cc(Cl)cc(C#N)c1)[C@H]1CCCC[C@@H]1O` [Example 74], the IC50 (in general, the concentration that gives 50% inhibition) at human Gal-3 (hGal-3) came out at 44 nM; on human Gal-1 (hGal-1), 161 nM.

With `CO[C@@H]1[C@@H](n2cc(-c3cccc(F)c3C)nn2)[C@@H](O)[C@@H](CO)O[C@H]1C(=O)N(c1cc(Cl)cc(C#N)c1)[C@H]1CCCC[C@@H]1O` [Example 75, (2R,3R,4S,5R,6R)-N-(3-chloro-5-cyanophenyl)-4-(4-(3-fluoro-2-methylphenyl)-1H-1,2,3-triazol-1-yl)-5-hydroxy-N-((1S,2S)-2-hydroxycyclohexyl)-6-(hydroxymethyl)-3-methoxytetrahydro-2H-pyran-2-carboxamide], the IC50 is 50 nM on human Gal-3 (hGal-3) and 259 nM on human Gal-1 (hGal-1).

Regarding `COc1ccc(F)cc1-c1cn([C@H]2[C@@H](O)[C@@H](CO)O[C@@H](C(=O)N(c3cc(Cl)cc(C#N)c3)[C@H]3CCCC[C@@H]3O)[C@@H]2OC)nn1` [Example 76, (2R,3R,4S,5R,6R)-N-(3-chloro-5-cyanophenyl)-4-(4-(5-fluoro-2-methoxyphenyl)-1H-1,2,3-triazol-1-yl)-5-hydroxy-N-((1S,2S)-2-hydroxycyclohexyl)-6-(hydroxymethyl)-3-methoxytetrahydro-2H-pyran-2-carboxamide], the IC50 on human Gal-3 (hGal-3) was 42 nM; at human Gal-1 (hGal-1) it was 901 nM.

`COc1cccc(N(C(=O)[C@@H]2O[C@H](CO)[C@H](O)[C@H](n3cc(-c4cc(F)cc(F)c4)nn3)[C@H]2OC)[C@H]2CCCC[C@@H]2O)c1` [Example 79]: the figures for the IC50 on human Gal-3 (hGal-3) and on human Gal-1 (hGal-1) were 62 nM and 2110 nM, respectively.

On to `CO[C@@H]1[C@@H](n2cc(-c3cc(F)cc(F)c3)nn2)[C@@H](O)[C@@H](CO)O[C@H]1C(=O)N(c1cc(Cl)cc(C#N)c1)[C@H]1CCCC[C@@H]1O` [Example 80, (2R,3R,4S,5R,6R)-N-(3-chloro-5-cyanophenyl)-4-(4-(3,5-difluorophenyl)-1H-1,2,3-triazol-1-yl)-5-hydroxy-N-((1S,2S)-2-hydroxycyclohexyl)-6-(hydroxymethyl)-3-methoxytetrahydro-2H-pyran-2-carboxamide], for which the IC50 on human Gal-3 (hGal-3) is 25 nM; on human Gal-1 (hGal-1), 383 nM.

As to `CO[C@@H]1[C@@H](n2cc(-c3cc(F)cc(F)c3)nn2)[C@@H](O)[C@@H](CO)O[C@H]1C(=O)N(c1cc(C)cc(C#N)c1)[C@H]1CCCC[C@@H]1O` [Example 81, (2R,3R,4S,5R,6R)-N-(3-cyano-5-methylphenyl)-4-(4-(3,5-difluorophenyl)-1H-1,2,3-triazol-1-yl)-5-hydroxy-N-((1S,2S)-2-hydroxycyclohexyl)-6-(hydroxymethyl)-3-methoxytetrahydro-2H-pyran-2-carboxamide], the figures for the IC50 on human Gal-3 (hGal-3) and at human Gal-1 (hGal-1) were 73 nM and 1320 nM, respectively.

Regarding `COc1cc(C#N)cc(N(C(=O)[C@@H]2O[C@H](CO)[C@H](O)[C@H](n3cc(-c4cc(F)cc(F)c4)nn3)[C@H]2OC)[C@H]2CCCC[C@@H]2O)c1` [Example 82, (2R,3R,4S,5R,6R)-N-(3-cyano-5-methoxyphenyl)-4-(4-(3,5-difluorophenyl)-1H-1,2,3-triazol-1-yl)-5-hydroxy-N-((1S,2S)-2-hydroxycyclohexyl)-6-(hydroxymethyl)-3-methoxytetrahydro-2H-pyran-2-carboxamide], the IC50 amounted to 17 nM at human Gal-3 (hGal-3) and 1160 nM on human Gal-1 (hGal-1).

Consider `CO[C@@H]1[C@@H](n2cc(-c3cc(F)cc(F)c3)nn2)[C@@H](O)[C@@H](CO)O[C@H]1C(=O)N(c1cc(C)cc(Cl)c1)[C@H]1CCCC[C@@H]1O` [Example 83, (2R,3R,4S,5R,6R)-N-(3-chloro-5-methylphenyl)-4-(4-(3,5-difluorophenyl)-1H-1,2,3-triazol-1-yl)-5-hydroxy-N-((1S,2S)-2-hydroxycyclohexyl)-6-(hydroxymethyl)-3-methoxytetrahydro-2H-pyran-2-carboxamide], for which the IC50 on human Gal-3 (hGal-3) was found to be 26 nM; at human Gal-1 (hGal-1) it was 2320 nM.

As to `CO[C@@H]1[C@@H](n2cc(-c3cc(F)cc(F)c3)nn2)[C@@H](O)[C@@H](CO)O[C@H]1C(=O)N(c1cccc(Br)c1)[C@H]1CCCC[C@@H]1O` [Example 84, (2R,3R,4S,5R,6R)-N-(3-bromophenyl)-4-(4-(3,5-difluorophenyl)-1H-1,2,3-triazol-1-yl)-5-hydroxy-N-((1S,2S)-2-hydroxycyclohexyl)-6-(hydroxymethyl)-3-methoxytetrahydro-2H-pyran-2-carboxamide], the IC50 at human Gal-3 (hGal-3) came to 25 nM; at human Gal-1 (hGal-1), 1900 nM.

Turning to `CO[C@@H]1[C@@H](n2cc(-c3cc(F)cc(F)c3)nn2)[C@@H](O)[C@@H](CO)O[C@H]1C(=O)N(c1cccc(Cl)c1)[C@H]1CCCC[C@@H]1O` [Example 85, (2R,3R,4S,5R,6R)-N-(3-chlorophenyl)-4-(4-(3,5-difluorophenyl)-1H-1,2,3-triazol-1-yl)-5-hydroxy-N-((1S,2S)-2-hydroxycyclohexyl)-6-(hydroxymethyl)-3-methoxytetrahydro-2H-pyran-2-carboxamide], the values for the IC50 at human Gal-3 (hGal-3) and at human Gal-1 (hGal-1) were 35 nM and 1690 nM, respectively.

Turning to `CO[C@@H]1[C@@H](n2cc(-c3cc(F)cc(F)c3)nn2)[C@@H](O)[C@@H](CO)O[C@H]1C(=O)N(c1cccc(C#N)c1)[C@H]1CCCC[C@@H]1O` [Example 86, (2R,3R,4S,5R,6R)-N-(3-cyanophenyl)-4-(4-(3,5-difluorophenyl)-1H-1,2,3-triazol-1-yl)-5-hydroxy-N-((1S,2S)-2-hydroxycyclohexyl)-6-(hydroxymethyl)-3-methoxytetrahydro-2H-pyran-2-carboxamide], the IC50 on human Gal-3 (hGal-3) worked out at 111 nM; on human Gal-1 (hGal-1), 1850 nM.

On to `[2H]C([2H])([2H])O[C@@H]1[C@@H](n2cc(-c3cc(F)c(F)c(F)c3)nn2)[C@@H](O)[C@@H](CO)O[C@H]1C(=O)N(c1cc(Cl)cc(Cl)c1)[C@H]1CCCC[C@@H]1O` [Example 87, (2R,3R,4S,5R,6R)-N-(3,5-dichlorophenyl)-5-hydroxy-N-((1S,2S)-2-hydroxycyclohexyl)-6-(hydroxymethyl)-3-(methoxy-d3)-4-(4-(3,4,5-trifluorophenyl)-1H-1,2,3-triazol-1-yl)tetrahydro-2H-pyran-2-carboxamide], for which the IC50 on human Gal-3 (hGal-3) was 7 nM; on human Gal-1 (hGal-1) it was 173 nM.

For `CO[C@@H]1[C@@H](n2cc(-c3cc(F)c(F)c(F)c3)nn2)[C@@H](O)[C@@H](CO)O[C@H]1C(=O)N(c1cc(Cl)cc(C#N)c1)[C@H]1CCCC[C@@H]1O` [Example 88, (2R,3R,4S,5R,6R)-N-(3-chloro-5-cyanophenyl)-5-hydroxy-N-((1S,2S)-2-hydroxycyclohexyl)-6-(hydroxymethyl)-3-methoxy-4-(4-(3,4,5-trifluorophenyl)-1H-1,2,3-triazol-1-yl)tetrahydro-2H-pyran-2-carboxamide], the IC50 stood at 13 nM at human Gal-3 (hGal-3) and 157 nM at human Gal-1 (hGal-1).

On to `CO[C@@H]1[C@@H](n2cc(-c3cc(F)c(F)c(F)c3)nn2)[C@@H](O)[C@@H](CO)O[C@H]1C(=O)N(c1cc(Cl)ccc1C)[C@H]1CCCC[C@@H]1O` [Example 89, (2R,3R,4S,5R,6R)-N-(5-chloro-2-methylphenyl)-5-hydroxy-N-((1S,2S)-2-hydroxycyclohexyl)-6-(hydroxymethyl)-3-methoxy-4-(4-(3,4,5-trifluorophenyl)-1H-1,2,3-triazol-1-yl)tetrahydro-2H-pyran-2-carboxamide], for which the IC50 at human Gal-3 (hGal-3) came to 10 nM; on human Gal-1 (hGal-1), 76 nM.

Turning to `CO[C@@H]1[C@@H](n2cc(-c3cc(F)c(F)c(F)c3)nn2)[C@@H](O)[C@@H](CO)O[C@H]1C(=O)N(c1ccc(F)c(Cl)c1)[C@H]1CCCC[C@@H]1O` [Example 90, (2R,3R,4S,5R,6R)-N-(3-chloro-4-fluorophenyl)-5-hydroxy-N-((1S,2S)-2-hydroxycyclohexyl)-6-(hydroxymethyl)-3-methoxy-4-(4-(3,4,5-trifluorophenyl)-1H-1,2,3-triazol-1-yl)tetrahydro-2H-pyran-2-carboxamide], the IC50 turned out to be 26 nM at human Gal-3 (hGal-3) and 358 nM at human Gal-1 (hGal-1).

For `CO[C@@H]1[C@@H](n2cc(-c3cc(F)c(F)c(F)c3)nn2)[C@@H](O)[C@@H](CO)O[C@H]1C(=O)N(c1ccc(C(F)(F)F)c(Cl)c1)[C@H]1CCCC[C@@H]1O` [Example 91, (2R,3R,4S,5R,6R)-N-(3-chloro-4-(trifluoromethyl)phenyl)-5-hydroxy-N-((1S,2S)-2-hydroxycyclohexyl)-6-(hydroxymethyl)-3-methoxy-4-(4-(3,4,5-trifluorophenyl)-1H-1,2,3-triazol-1-yl)tetrahydro-2H-pyran-2-carboxamide], the IC50 turned out to be 147 nM on human Gal-3 (hGal-3) and 1540 nM at human Gal-1 (hGal-1).

As to `CO[C@@H]1[C@@H](n2cc(-c3cc(F)c(F)c(F)c3)nn2)[C@@H](O)[C@@H](CO)O[C@H]1C(=O)N(c1ccc(F)c(Br)c1)[C@H]1CCCC[C@@H]1O` [Example 92, (2R,3R,4S,5R,6R)-N-(3-bromo-4-fluorophenyl)-5-hydroxy-N-((1S,2S)-2-hydroxycyclohexyl)-6-(hydroxymethyl)-3-methoxy-4-(4-(3,4,5-trifluorophenyl)-1H-1,2,3-triazol-1-yl)tetrahydro-2H-pyran-2-carboxamide], the IC50 amounted to 18 nM at human Gal-3 (hGal-3) and 340 nM at human Gal-1 (hGal-1).

For the molecule `CO[C@@H]1[C@@H](n2cc(-c3cc(F)c(F)c(F)c3)nn2)[C@@H](O)[C@@H](CO)O[C@H]1C(=O)N(c1ccc2ncsc2c1)[C@H]1CCCC[C@@H]1O` [Example 93, (2R,3R,4S,5R,6R)-N-(benzo[d]thiazol-6-yl)-5-hydroxy-N-((1S,2S)-2-hydroxycyclohexyl)-6-(hydroxymethyl)-3-methoxy-4-(4-(3,4,5-trifluorophenyl)-1H-1,2,3-triazol-1-yl)tetrahydro-2H-pyran-2-carboxamide], the IC50 at human Gal-3 (hGal-3) is 20 nM; on human Gal-1 (hGal-1), 163 nM.
